Laboratory results reported in paper PMC10636026, “Coordinated regulation of the entry and exit steps of aromatic amino acid biosynthesis supports the dual lignin pathway in grasses” (Nature Communications, 2023).

Assays:
Assay type in all cases: biochemical
[1] = molecular target: T1, BdDHS1a (3-deoxy-D-arabino-heptulosonate 7-phosphate synthase) (Brachypodium distachyon, UniProt I1GSB3); test: recombinant purified enzyme, DHS activity (PEP consumption at […] nm); settings: read-out: IC50 / (μM Agn)
T1 construct: gene LOC100823133; without the predicted plastid transit peptide

[2] = molecular target: T2, BdTyrAnc (non-canonical arogenate dehydrogenase) (Brachypodium distachyon, UniProt I1GYB3); test: Michaelis-Menten kinetics of recombinant purified enzyme (Km)
T2 construct: gene LOC100829970; without the predicted plastid transit peptide, poly-histidine tag
T2 sequence (I1GYB3 51-361): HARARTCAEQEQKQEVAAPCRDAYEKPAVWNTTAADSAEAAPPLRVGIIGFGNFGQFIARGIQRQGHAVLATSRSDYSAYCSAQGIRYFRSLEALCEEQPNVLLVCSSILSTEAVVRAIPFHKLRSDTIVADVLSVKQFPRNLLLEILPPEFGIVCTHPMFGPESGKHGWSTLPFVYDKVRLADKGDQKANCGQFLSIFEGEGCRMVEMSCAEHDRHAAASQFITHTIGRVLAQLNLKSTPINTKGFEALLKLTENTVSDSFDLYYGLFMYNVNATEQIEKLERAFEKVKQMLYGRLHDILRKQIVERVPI

[3] = molecular target: T3, BdDHS2 (3-deoxy-D-arabino-heptulosonate 7-phosphate synthase) (Brachypodium distachyon, UniProt I1I809); test: recombinant purified enzyme, DHS activity (PEP consumption at […] nm); settings: read-out: IC50 / (μM Agn)
T3 construct: gene LOC100821423; without the predicted plastid transit peptide

[4] = molecular target: T3, BdDHS2 (3-deoxy-D-arabino-heptulosonate 7-phosphate synthase); test: recombinant purified enzyme, DHS activity assay; settings: read-out: IC50 / (μM Trp)
[5] = molecular target: T4, BdTyrA2 (arogenate dehydrogenase) (Brachypodium distachyon, UniProt I1GWX1); test: recombinant purified enzyme, arogenate dehydrogenase assay (NADPH at […] nm); Ki calculated from IC50 and Km; settings: read-out: Ki / (μM tyrosine)
T4 construct: gene LOC100833753; without the predicted plastid transit peptide, poly-histidine tag
T4 sequence (I1GWX1 56-365): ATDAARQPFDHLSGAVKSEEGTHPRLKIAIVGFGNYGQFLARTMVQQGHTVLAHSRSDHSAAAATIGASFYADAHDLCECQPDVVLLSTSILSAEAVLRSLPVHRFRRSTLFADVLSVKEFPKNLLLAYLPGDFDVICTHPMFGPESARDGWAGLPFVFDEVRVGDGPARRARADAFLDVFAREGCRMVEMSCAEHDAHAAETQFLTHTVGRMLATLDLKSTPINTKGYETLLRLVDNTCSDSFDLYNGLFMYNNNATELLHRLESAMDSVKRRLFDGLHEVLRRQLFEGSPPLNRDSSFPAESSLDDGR

[6] = molecular target: T2, BdTyrAnc (non-canonical arogenate dehydrogenase); test: as above; settings: read-out: Ki / (μM tyrosine)

T3 sequence (I1I809 51-503): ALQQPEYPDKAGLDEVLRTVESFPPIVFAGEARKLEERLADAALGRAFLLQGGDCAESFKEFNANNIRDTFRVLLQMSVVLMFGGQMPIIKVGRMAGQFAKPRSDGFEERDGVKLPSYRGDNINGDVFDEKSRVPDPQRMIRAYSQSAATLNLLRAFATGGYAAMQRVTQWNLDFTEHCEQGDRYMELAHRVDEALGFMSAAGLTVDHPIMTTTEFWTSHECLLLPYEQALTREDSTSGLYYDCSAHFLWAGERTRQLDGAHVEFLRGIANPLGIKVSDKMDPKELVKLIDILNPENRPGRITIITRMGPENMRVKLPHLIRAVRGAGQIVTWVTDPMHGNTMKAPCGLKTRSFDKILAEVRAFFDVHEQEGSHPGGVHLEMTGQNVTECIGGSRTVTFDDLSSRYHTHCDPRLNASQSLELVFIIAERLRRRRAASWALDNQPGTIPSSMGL
T1 sequence (I1GSB3 46-537): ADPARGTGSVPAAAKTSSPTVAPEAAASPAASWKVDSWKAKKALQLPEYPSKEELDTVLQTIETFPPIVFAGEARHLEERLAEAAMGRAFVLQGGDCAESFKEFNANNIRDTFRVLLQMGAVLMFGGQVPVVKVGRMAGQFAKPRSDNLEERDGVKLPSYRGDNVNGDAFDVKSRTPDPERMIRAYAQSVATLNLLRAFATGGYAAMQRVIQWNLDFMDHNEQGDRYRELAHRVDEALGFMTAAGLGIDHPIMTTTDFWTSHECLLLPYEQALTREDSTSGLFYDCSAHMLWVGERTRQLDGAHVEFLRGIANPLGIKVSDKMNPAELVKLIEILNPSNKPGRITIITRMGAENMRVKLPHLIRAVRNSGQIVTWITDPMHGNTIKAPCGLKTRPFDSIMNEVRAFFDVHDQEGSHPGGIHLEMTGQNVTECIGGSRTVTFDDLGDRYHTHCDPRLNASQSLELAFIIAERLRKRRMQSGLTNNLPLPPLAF

N[C@@H](C[C@]1(C(=O)O)C=C[C@@H](O)C=C1)C(=O)O [arogenate]
IC50 [1]: 285 ± 24 µM | Km [2]: 0.13 ± 0.04 mM | IC50 [3]: 91 ± 11 µM

N[C@@H](Cc1c[nH]c2ccccc12)C(=O)O [tryptophan]
IC50 [4]: 120 ± 4 µM

N[C@@H](Cc1ccc(O)cc1)C(=O)O [tyrosine]
Ki [5]: 8 ± 2 µM | Ki [6]: 64 ± 25 µM
